Measured values from patent US20230338539A1, “METHOD OF TREATING DIFFICULT TO ACCESS TUMORS WITH PHOTOACTIVATED CANCER THERAPY” (priority 2020, published 2023).

Experiments:
[1] = system: 4T1-HER2 cells; conditions: multi-variable regression on 36 independent irradiation experiments
Description: Guava Annexin V flow cell cytometry was used to quantify cytotoxicity in 3 murine tumor cell lines (breast-4T1, glioma-CT2A, and sarcoma KP15B8). […] Cells were incubated in appropriate growing media and buffers before being trypsinized and plated evenly onto twelve (12) well plates for 24 hours. […] The plates were then irradiated with x-rays by placing the plate at a known distance from the x-ray source (e.g., 50 cm). After irradiation the cells were incubated on the plate for 48 hours prior to performing flow cytometry. For compatibility with 96-well Guava Nexin® assay, the remaining cells were again trypsinized (after the 48 hour incubation) and plated onto a 96-well plate. […]
Cells plated in 12-well plates, where individual wells in each plate may receive different experimental conditions (e.g. psoralen concentration), but the same x-ray dose (i.e. all wells in a given plate receive the same x-ray dose). The first metric is metabolically viable cell count (or cell viability) determined from the number of whole cells per well as determined using forward scattering (FSC). […] (All wells on a given plate receive the same dose.) The second metric is Annexin V (+) signal, which is the fraction of the metabolically viable cells which expressed a positive Annexin V signal as determined by flow cell cytometry, and include any cells advancing toward early or late apoptotic cell death. […]

[2] = system: CT2A (murine malignant glioma); test: UV light activated psoralen, Cell-Titer-Glo Luminescence Cell Viability Assay (FIG. 3A); type: cell-based; conditions: psoralen 40 μM; UV light 0, 0.25, 0.5, 1.0 J/cm^2
Description: (§1) Metabolic cell viability was also assessed visually using Methylene blue staining and ATP-induced Luminescence imaging (Cell-Titer-Glo® Luminescence Cell Viability Assay). The luminescence imaging permitted investigation of the cytotoxicity of psoralen activated directly with a UV lamp, and in the absence of phosphors and x-ray radiation. […] N=4 for each cell line at each UV light condition (0, 0.25, 0.5, 1.0 J/cm^2). The psoralen concentration was 40 μM.

[3] = system: syngeneic 4T1-HER2 tumors; test: In-vivo X-PACT trial on syngeneic tumors (FIG. 6); parameters: species or system BALB/c mice; conditions: psoralen (AMT) alone with x-ray, phosphors alone with x-ray; relative to in-vitro expectation
Description: There were 6-8 mice per arm, and the study was repeated a second time, yielding effective sample sizes of 12-16. […] In the separate psoralen and phosphor control arms (blue and red respectively), 5 μM psoralen (AMT) and 100 μg of phosphor where applied. A consistent x-ray irradiation technique was used for all arms (except saline control) which was 2 Gy delivered at 75 kVp by 30 mA in 3 minutes.

[4] = system: 4T1; test: UV light activated psoralen, Cell-Titer-Glo Luminescence Cell Viability Assay (FIG. 3A); type: cell-based, murine; conditions: psoralen 40 μM; UV light 0, 0.25, 0.5, 1.0 J/cm^2
Description: as §1

[5] = system: KP158B (sarcoma); test: as above; type: cell-based, murine; conditions: psoralen 40 μM; UV light 0, 0.25, 0.5, 1.0 J/cm^2
Description: as §1

O=c1ccc2cc3ccoc3cc2o1 [psoralen]
effect on cytotoxicity (Annexin V signal) of component alone [1]: neither psoralen nor phosphor alone had a strong effect on cytotoxicity
effect of UV light activated psoralen on viable cells [2]: reduce viable cells
component effect in control arms [3]: slightly higher component effect
effect of UV light activated psoralen on viable cells [4]: reduce viable cells
effect of UV light activated psoralen on viable cells [5]: reduce viable cells
